# Measured values as given in patent US20260191815A1, “THIOACRYLAMIDE DERIVATIVES FOR USE IN THE PREVENTION OR TREATMENT OF LIVER FIBROSIS” (CMR CUREDIAB METABOLIC RESEARCH GMBH, priority 2022, published 2026).
# Entries after “also recorded” stand apart in the source; their conditions may differ.
# Legend:
# [1] = test system: 3D primary human hepatocyte (PHH) spheroid NASH model; assay: Intracellular lipid accumulation (AdipoRed) in 3D PHH:NPC NASH spheroids; format: cell-based; settings: NASH medium; for lipid contents of spheroids compared to NASH (100%): 1 week of exposure
# Experimental: (§1) Experiments were conducted using HepaPredict's (HepaPredict AB, Sweden) 3D primary human hepatocyte (PHH) spheroid NASH model (e.g. as published in Bell et al. Sci Rep. 2016 May 4; 6:25187. doi: 10.1038/srep25187).
# (§2) Cryopreserved primary human hepatocytes were obtained from BioIVT (USA) and nonparenchymal cells (NPC) from LifeNetHealth (USA). After thawing, PHH-NPC cocultures were seeded in a multi-well 96-well Elplasia plate (Corning) in William's E medium containing 11 mM glucose, 10 μg/mL (control) or 10 mg/mL insulin (NASH), 100 nM dexamethasone, 5.5 mg/L transferrin, 6.7 μg/L selenite, 2 mM L-glutamine, 1 U/mL penicillin, 0.1 mg/mL streptomycin, and 10% fetal bovine serum (FBS). PHH-NPC cocultures were seeded in ratio of 6:1 PHH:NPC with a total of 40,000 PHH per well. When spheroids were formed, FBS was phased out and spheroids were maintained in either the same media to provide the negative control (“Ctrl”), or with addition of albumin-conjugated free fatty acid (FFA), comprised of 240 μM palmitic acid and 240 μM oleic acid (NASH medium) to provide the positive control (“NASH”). Compound exposure was conducted in NASH medium with medium exchanges every 48-72 hours.
# For cell viability and intracellular lipid accumulation assays, cells were seeded as previously reported (Bell et al., SciRep, 2016). In short, PHH and NPC were seeded as a single spheroid per well into 96-well ultra-low attachment (ULA) plates (Corning) at 1,500 viable cells per well with the PHH:NPC ratio 6:1.
# (§3) After spheroid formation, cells were exposed to up to five different concentrations of the candidate molecules HK1 or HK3 (0.1 μM, 0.3 μM, 1 μM, 3 μM, and 10 μM) with or without FFA in the culture medium. All compound stocks and dilutions were prepared in DMSO, aliquoted and stored protected from light at −20° C. Fresh dosing solutions were prepared from these aliquots on each dosing day. All endpoints were evaluated after 14 days of exposure.
# (§4) For statistical comparisons, normalized values for a given condition were compared to either the corresponding vehicle (DMSO) controls or the respective FFA (NASH) controls at the same time point using heteroscedastic unpaired two-tailed t-tests.
# Intracellular lipid accumulation was quantified using the AdipoRed Adipogenesis Assay Kit (Lonza) following the manufacturer's instructions. […] Afterwards, spheroids were disrupted by vigorous pipetting and fluorescence was measured (Ex/Em: 485/572) using a SpectraMax iD5 multi-mode microplate reader (Molecular Devices).
# To evaluate whether the two candidate compounds HK1 and HK3 impacted hepatic steatosis, we assessed their impact on intracellular triglyceride accumulation after 1 week of exposure. […]
# [2] = test system: IL-6 secretion in 3D PHH:NPC spheroids; assay: IL-6 secretion (Luminex) by 3D PHH:NPC NASH spheroids; format: cell-based, human; settings: for IL-6 levels compared to NASH: NASH medium
# Experimental: as §1, §2, §3, §4
# Secreted cytokines (IL-6 and IL-8) were measured in culture supernatants using a customized Magnetic Luminex Performance Assay (Human Cytokine Panel A, R&D Systems). The multiplexed assay was performed following the manufacturer's instructions. Standard curves were generated by resuspending the human recombinant cytokines mixture at concentrations ranging from […] with 8 points at 1:3 series dilution for the customized selection of […], IL-6 and IL-8/CXCL8. […] The fluorescence intensity was measured using a Bio-Plex 200 system (Bio-Rad), the median fluorescence intensity of each analyte was analyzed with the Bio-Plex Manage software (version 6.2) using a 5-parameter regression algorithm. […]
# To assess the effect of the two candidate compounds HK1 and HK3 on hepatic inflammation, we measured levels of the pro-inflammatory cytokines IL-6 and IL-8.
# [3] = test system: IL-8 secretion in 3D PHH:NPC spheroids; assay: IL-8 secretion (Luminex) by 3D PHH:NPC NASH spheroids; format: cell-based, human; settings: across 1-10 μM, NASH medium
# Experimental: as §1
# Cryopreserved primary human hepatocytes were obtained from BioIVT (USA) and nonparenchymal cells (NPC) from LifeNetHealth (USA). After thawing, PHH-NPC cocultures were seeded in a multi-well 96-well Elplasia plate (Corning) in William's E medium containing 11 mM glucose, 10 μg/mL (control) or 10 mg/mL insulin (NASH), 100 nM dexamethasone, 5.5 mg/L transferrin, 6.7 μg/L selenite, 2 mM L-glutamine, 1 U/mL penicillin, 0.1 mg/mL streptomycin, and 10% fetal bovine serum (FBS). […]
# After spheroid formation, cells were exposed to up to five different concentrations of the candidate molecules HK1 or HK3 (0.1 μM, 0.3 μM, 1 μM, 3 μM, and 10 μM) with or without FFA in the culture medium. […] All endpoints were evaluated after 14 days of exposure. […]
# Secreted cytokines (IL-6 and IL-8) were measured in culture supernatants using a customized Magnetic Luminex Performance Assay (Human Cytokine Panel A, R&D Systems). […] The fluorescence intensity was measured using a Bio-Plex 200 system (Bio-Rad), the median fluorescence intensity of each analyte was analyzed with the Bio-Plex Manage software (version 6.2) using a 5-parameter regression algorithm. […]
SMILES,"accumulation of intracellular lipids compared to the positive control ([1]; across 1 μM, 3 μM and 10 μM, 1 week)",IL-6 levels compared to NASH ([2]; 1 μM),IL-6 levels compared to NASH ([2]; 3 μM),IL-6 levels compared to NASH ([2]; 10 μM),"IL-6 secretion, effect in words ([2]; NASH spheroids, 1-10 μM)",IL-8 levels compared to NASH [3],lipid contents of spheroids compared to NASH (100%) ([1]; 1 μM),lipid contents of spheroids compared to NASH (100%) ([1]; 3 μM),lipid contents of spheroids compared to NASH (100%) ([1]; 10 μM)
"Cc1cc(NC(=S)/C(C#N)=C(\O)C2CC2)ccc1[N+](=O)[O-] [HK3, 2-Cyano-3-cyclopropyl-3-hydroxy-N-(3-methyl-4-nitro-phenyl)-thioacrylamide]",46-49%,73%,55%,72%,slight decrease; also recorded: stronger decrease,80-91%,,,
"Cc1cc(NC(=S)/C(C#N)=C(\O)C2CC2)ccc1F [HK1, 2-Cyano-3-cyclopropyl-N-(4-fluoro-3-methyl-phenyl)-3-hydroxy-thioacrylamide]",,,,,,,79%,81%,62%
